For assay [1], the system named is cultured Plasmodium falciparum parasite strain 3D7. Description: Antimalarial efficacy, parasite growth inhibition by Sybr Green staining. Conditions: P. falciparum strain 3D7. It counts as cell-based. On the procedure:
Each compound was tested for the ability to inhibit growth of a standard cultured Plasmodium falciparum parasite strain 3D7. Parasite growth was monitored by staining with the DNA fluorophore Sybr Green, as previously described for the antimalarial fosmidomycin in Zhang et al., Biochemistry, (2011) 50(17), 3570-3577. Each compound was evaluated for antimalarial activity over several concentrations. Nonlinear regression analysis was used to determine the concentration of half-maximal antimalarial efficacy (EC50) for each compound.

In assay [2] the target is purified recombinant Plasmodium falciparum methylerythritol cytidyltransferase (PfIspD) enzyme (Plasmodium falciparum, UniProt Q8I273). Description: biochemical. Conditions: nonlinear regression. The method, then:
Compounds listed in Table 1 were tested for activity against purified recombinant Plasmodium falciparum methylerythritol cytidyltransferase (PfIspD) enzyme. […] Each compound was evaluated for enzymatic inhibition over several concentrations. Nonlinear regression analysis (GraphPad Prism) was used to determine the half-maximal inhibitory concentration (IC50) for each compound.

For another assay, the system named is MEP pathway. Description: Metabolic profiling of inhibitor-treated malaria parasites (LC-MS/MS). It counts as cell-based. The settings on record: parasite lines treated with compound, FIG. 3. From the text:
A quantitative liquid chromatography-mass spectrometry method (LC-MS/MS) was developed to determine the cellular levels of metabolites in the MEP pathway. This method allows determination of whether the MEP pathway has been inhibited in malaria parasites treated with MEP pathway inhibitors of the present invention. This method has been previously used to validate the cellular metabolic effects of the known MEP pathway inhibitor fosmidomycin (Zhang et al., Biochemistry 2011).

SMILES strings stand for the structures. Where only a bound is given, the exact number is not on record here.

Chain of purified recombinant Plasmodium falciparum methylerythritol cytidyltransferase (PfIspD) enzyme (Q8I273 entry or part of it): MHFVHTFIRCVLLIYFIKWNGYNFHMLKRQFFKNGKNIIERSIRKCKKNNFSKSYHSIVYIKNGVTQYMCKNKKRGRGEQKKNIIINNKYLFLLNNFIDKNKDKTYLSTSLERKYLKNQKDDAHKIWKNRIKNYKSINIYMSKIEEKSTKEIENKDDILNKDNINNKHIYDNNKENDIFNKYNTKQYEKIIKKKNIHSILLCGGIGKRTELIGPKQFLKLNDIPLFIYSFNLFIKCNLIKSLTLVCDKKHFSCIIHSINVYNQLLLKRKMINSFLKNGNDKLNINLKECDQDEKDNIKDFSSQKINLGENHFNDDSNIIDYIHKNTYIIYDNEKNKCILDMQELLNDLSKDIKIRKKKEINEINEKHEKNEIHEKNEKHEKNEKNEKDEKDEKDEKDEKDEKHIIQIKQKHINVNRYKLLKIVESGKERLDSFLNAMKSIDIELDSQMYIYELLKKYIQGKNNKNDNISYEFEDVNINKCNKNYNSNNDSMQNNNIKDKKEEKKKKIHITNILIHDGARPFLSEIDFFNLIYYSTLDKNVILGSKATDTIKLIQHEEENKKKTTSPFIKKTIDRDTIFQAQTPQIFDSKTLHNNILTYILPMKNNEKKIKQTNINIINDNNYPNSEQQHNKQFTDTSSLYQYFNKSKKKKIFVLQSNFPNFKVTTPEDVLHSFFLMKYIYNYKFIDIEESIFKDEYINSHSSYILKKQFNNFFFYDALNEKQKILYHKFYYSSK

In assay [1], `O=c1c2ccccc2sn1-c1cc(S(=O)(=O)N2CCOCC2)ccc1N1CCCC1` [Compound 2, 1,2-benzisothiazol-3(2H)-one,2-[-5-(4-morpholinylsulfonyl)-2-(1-pyrrolidinyl)phenyl]] had an EC50 of 17100 nM. For the same compound, in assay [2], the IC50 turned out to be 7260 nM.

In turn, `Cc1ccc(-n2sc3ccccc3c2=O)cc1S(=O)(=O)N1CCOCC1` [Compound 3, 1,2-benzisothiazol-3(2H)-one,2-[4-methyl-3-(4-morpholinylsulfonyl)phenyl]] came in with an EC50 in assay [1] of 4960 nM. The IC50 in assay [2] stood at 506 nM.

For `O=c1c2ccccc2sn1-c1ccc(S(=O)(=O)N2CCOCC2)cc1` [Compound 4, 1,2-benzisothiazol-3(2H)-one,2-[4-(4-morpholinylsulfonyl)phenyl]], a half-maximal effect in assay [1] (EC50) was put at 20800 nM. In addition, the IC50 in assay [2] was found to be 30900 nM.

In the case of `O=c1c2ccccc2sn1-c1cccc(S(=O)(=O)N2CCOCC2)c1` [Compound 10, 2-(3-morpholinosulfonyl)phenylbenzo[d]isothiazol-3(2H)-one], the EC50 in assay [1] was 7400 nM. In assay [2], the IC50 was found to be 656 nM.

`CSc1ccccc1C(=O)Nc1cccc(S(=O)(=O)N2CCOCC2)c1` [Compound 11, 2-(methylthio)-(N-((3-morpholinosulfonyl)phenyl)benzamide)] displayed an EC50 in assay [1] of 82600 nM. Moreover, in assay [2], the IC50 was greater than 200000 nM.

Take `Cc1nnsc1C(=O)Nc1cc(S(=O)(=O)N2CCCCC2)ccc1O` [Compound 19, N-[2-hydroxy-5-(piperidine-1-sulfonyl)phenyl]-4-methyl-1,2,3-thiadiazole-5-carboxamide]: the EC50 in assay [1] is greater than 200000 nM. Besides, the IC50 in assay [2] stood at 58900 nM.

For the compound `COc1ccc(S(=O)(=O)N2CCOCC2)cc1-n1sc2ccccc2c1=O` [Compound 24, 2-(2-methoxy-5-(morpholinosulfonyl)phenyl)benzo[d]isothiazol-3(2H)-one], the midpoint of the response in assay [1], the EC50, lay at 8610 nM. For the same compound, the IC50 in assay [2] was found to be 1080 nM.

`COc1ccc(S(=O)(=O)N2CCCCC2)cc1-n1sc2ccccc2c1=O` [Compound 25, 2-(2-methoxy-5-(piperidin-1-ylsulfonyl)phenyl)benzo[d]isothiazol-3(2H)-one]: the response in assay [1] was half-maximal at 14300 nM (EC50). The IC50 in assay [2] is 809 nM.

For `COc1ccc(S(=O)(=O)N2CCC(F)CC2)cc1-n1sc2ccccc2c1=O` [Compound 26, 2-(5-((4-fluoropiperidin-1-yl)sulfonyl)-2-methoxyphenyl)benzo[d]isothiazol-3(2H)-one], the EC50 in assay [1] came out at 6110 nM. Further, in assay [2], the 50% inhibitory concentration (IC50) stood at 866 nM.

`COc1ccc(S(=O)(=O)N2CCCOCC2)cc1-n1sc2ccccc2c1=O` [Compound 27, 2-(5-((1,4-oxazepan-4-yl)sulfonyl)-2-methoxyphenyl)benzo[d]isothiazol-3(2H)-one] had an EC50 in assay [1] of 9100 nM. Besides, the IC50 in assay [2] was 542 nM.

In assay [1], `COc1ccc(S(=O)(=O)N2CCN(C)CC2)cc1-n1sc2ccccc2c1=O` [Compound 28, 2-(2-methoxy-5-((4-methylpiperazin-1-yl)sulfonyl)phenyl)benzo[d]isothiazol-3(2H)-one] returned an EC50 of 2470 nM. For the same compound, the IC50 in assay [2] was 1950 nM.

For `COc1ccc(S(=O)(=O)N2CCNCC2)cc1-n1sc2ccccc2c1=O` [Compound 36, 2-(2-methoxy-5-(piperazin-1-ylsulfonyl)phenyl)benzo[d]isothiazol-3(2H)-one], the EC50 in assay [1] was 970 nM. For the same compound, the IC50 in assay [2] came to 1150 nM.

As for `O=c1c2ccccc2sn1-c1cc(S(=O)(=O)N2CCOCC2)ccc1O` [Compound 37, 2-(2-hydroxy-5-(morpholinosulfonyl)phenyl)benzo[d]isothiazol-3(2H)-one], in assay [1], the EC50 was 7590 nM. For the same compound, the IC50 in assay [2] is 710 nM.

Take `O=c1c2ccccc2sn1-c1cc(S(=O)(=O)N2CCC(F)CC2)ccc1O` [Compound 38, 2-(5-((4-fluoropiperidin-1-yl)sulfonyl)-2-hydroxyphenyl)benzo[d]isothiazol-3(2H)-one]: the EC50 in assay [1] is 10100 nM. Further, the IC50 in assay [2] worked out at 13200 nM.

Turning to `O=c1c2ccccc2sn1-c1cc(S(=O)(=O)N2CCCCC2)ccc1O` [Compound 39, 2-(2-hydroxy-5-(piperidin-1-ylsulfonyl)phenyl)benzo[d]isothiazol-3(2H)-one], in assay [1], the EC50 worked out at 9210 nM. Also, the IC50 in assay [2] stood at 5390 nM.

`O=c1c2ccccc2sn1-c1cc(S(=O)(=O)N2CCCOCC2)ccc1O` [Compound 40, 2-(5-((1,4-oxazepan-4-yl)sulfonyl)-2-hydroxyphenyl)benzo[d]isothiazol-3(2H)-one] returned an EC50 in assay [1] of 14600 nM. For the same compound, the IC50 in assay [2] is 1950 nM.

With `COc1ccc(-c2cccc(-n3sc4ccccc4c3=O)c2)cc1` [Compound 41, 2-(4′-methoxy-[1,1′biphenyl]-3-yl)benzo[d]isothiazol-3(2H)-one], in assay [1], the EC50 is 770 nM. For the same compound, in the assay with MEP pathway, the “cellular level of downstream MEP pathway metabolite CDP-ME” value was “significantly decreased” and the “cellular level of downstream MEP pathway metabolite cMEPP” value is on record as “significantly decreased”.

For `O=c1c2ccccc2sn1-c1cccc(-c2ccsc2)c1` [Compound 42, 2-(3-(thiophen-3-yl)phenyl)benzo[d]isothiazol-3(2H)-one], in assay [1], the half-maximal effective concentration (EC50) turned out to be 2880 nM. The IC50 in assay [2] was 290 nM.

For the compound `O=c1c2ccccc2sn1-c1cccc(-c2ccc(Cl)cc2)c1` [Compound 43, 2-(4′-chloro-[1,1′biphenyl]-3-yl)benzo[d]isothiazol-3(2H)-one], the response in assay [1] was half-maximal at 610 nM (EC50). Moreover, the IC50 in assay [2] was 160 nM.

Compound `O=c1c2ccccc2sn1-c1cccc(-c2ccc(C(F)(F)F)cc2)c1` [Compound 44, 2-(4′-(trifluoromethyl)-[1,1′biphenyl]-3-yl)benzo[d]isothiazol-3(2H)-one] showed an EC50 in assay [1] of 450 nM. The IC50 in assay [2] worked out at 310 nM.

In the case of `COC(=O)c1cccc(-n2sc3ccccc3c2=O)c1` [Compound 45, Methyl-3-(3-oxobenzo[d]isothiazol-2(3H)-yl)benzoate], a half-maximal response in assay [1] (EC50) required 11700 nM. The half-inhibitory concentration (IC50) in assay [2] came out at 150 nM.

In the case of `O=C(O)c1cccc(-n2sc3ccccc3c2=O)c1` [Compound 46, 3-(3-oxobenzo[d]isothiazol-2(3H)-yl)benzoic acid], in assay [1], the concentration giving a half-maximal response (EC50) was greater than 200000 nM. Besides, the IC50 in assay [2] worked out at 480 nM.

Consider `O=c1c2ccccc2sn1-c1ccccn1` [Compound 47, 2-(pyridin-2-yl)benzo[d]isothiazol-2(3H)-one], for which the 50% effective concentration (EC50) in assay [1] turned out to be 70000 nM. Besides, the IC50 in assay [2] is 170 nM.

As to `O=c1c2ccccc2sn1Cc1ccccc1` [Compound 48, 2-benzylbenzo[d]isothiazol-2(3H)-one], in assay [2], the IC50 worked out at 2430 nM.

With `O=c1c2ccccc2sn1Cc1ccc(Cl)cc1` [Compound 49, 2-(4-chlorobenzyl)benzo[d]isothiazol-2(3H)-one], it took 17900 nM to reach a half-maximal effect in assay [1] (EC50). Moreover, the IC50 in assay [2] stood at 620 nM.

In the case of `O=c1[nH]sc2ncccc12` [Compound 50, Isothiazolo[5,4-b]pyridin-3(2H)-one], in assay [1], the response was half-maximal at 160000 nM (EC50). In assay [2], the IC50 is 56200 nM.

For the compound `COc1ccc(Cn2sc3ccccc3c2=O)cc1` [Compound 51, 2-(4-methoxybenzyl)benzo[d]isothiazol-2(3H)-one], in assay [1], the response was half-maximal at 67600 nM (EC50). Also, in assay [2], the IC50 came out at 1340 nM.

Turning to `O=c1c2cccnc2sn1Cc1ccccc1` [Compound 52, 2-benzylisothiazolo[5,4-b]pyridin-3(2H)-one], the IC50 in assay [2] turned out to be 1520 nM.

As usually defined, the EC50 is the concentration giving half of the maximal effect. One may read the IC50 as the concentration at which inhibition is half-maximal.

The values above are taken from US20170136030A1, “TREATMENT OF MALARIA USING INHIBITORS OF THE ISPD ENZYME IN THE NON-MEVALONATE PATHWAY” (Washington University, priority 2014, published 2017).
